# From ChEMBL document CHEMBL4311954, “Synthesis, biological evaluation, and docking studies of new raloxifene sulfonate or sulfamate derivatives as inhibitors of nucleotide pyrophosphatase/phosphodiesterase” (Eur J Med Chem, 2019)
# Counter-ions that a name gives are not always drawn.
# Key:
# [1] = biological target: T1, Ectonucleotide pyrophosphatase/phosphodiesterase family member 1 (Homo sapiens, UniProt P22413); assay: Inhibition of human NPP1 expressed in COS-7 cell membranes assessed as reduction in p-nitrophenol production using pNP-TMP as substrate preincubated with enzyme for 15 mins followed by substrate addition and measured after 35 mins
# T1 sequence (P22413 whole entry): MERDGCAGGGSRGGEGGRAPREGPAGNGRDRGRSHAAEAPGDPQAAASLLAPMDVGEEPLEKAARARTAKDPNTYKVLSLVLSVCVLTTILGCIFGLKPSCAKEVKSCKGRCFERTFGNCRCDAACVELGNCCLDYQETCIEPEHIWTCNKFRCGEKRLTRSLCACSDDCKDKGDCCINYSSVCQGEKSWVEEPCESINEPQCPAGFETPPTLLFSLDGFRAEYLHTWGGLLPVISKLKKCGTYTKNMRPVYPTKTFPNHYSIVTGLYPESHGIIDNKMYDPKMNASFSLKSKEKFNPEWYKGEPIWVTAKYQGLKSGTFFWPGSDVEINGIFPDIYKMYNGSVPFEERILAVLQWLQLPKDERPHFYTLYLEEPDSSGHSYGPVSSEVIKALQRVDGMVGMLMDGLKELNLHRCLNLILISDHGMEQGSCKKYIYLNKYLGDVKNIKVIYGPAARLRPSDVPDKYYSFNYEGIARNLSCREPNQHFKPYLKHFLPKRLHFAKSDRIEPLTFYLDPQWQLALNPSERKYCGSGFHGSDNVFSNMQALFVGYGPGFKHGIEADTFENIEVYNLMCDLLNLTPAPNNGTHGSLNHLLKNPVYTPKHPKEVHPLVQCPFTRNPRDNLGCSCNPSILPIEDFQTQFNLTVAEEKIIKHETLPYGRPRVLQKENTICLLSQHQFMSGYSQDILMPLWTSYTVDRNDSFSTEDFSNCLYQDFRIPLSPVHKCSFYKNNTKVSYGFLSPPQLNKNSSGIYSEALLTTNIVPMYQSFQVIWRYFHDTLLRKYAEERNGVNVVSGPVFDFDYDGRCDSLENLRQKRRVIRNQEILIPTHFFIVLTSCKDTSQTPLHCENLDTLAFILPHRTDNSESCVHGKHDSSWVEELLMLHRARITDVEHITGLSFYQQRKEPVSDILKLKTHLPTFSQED
# [2] = biological target: T2, Ectonucleotide pyrophosphatase/phosphodiesterase family member 3 (Homo sapiens, UniProt O14638); assay: Inhibition of human NPP3 expressed in COS-7 cell membranes assessed as reduction in p-nitrophenol production using pNP-TMP as substrate preincubated with enzyme for 15 mins followed by substrate addition and measured after 35 mins
# T2 sequence (O14638 whole entry): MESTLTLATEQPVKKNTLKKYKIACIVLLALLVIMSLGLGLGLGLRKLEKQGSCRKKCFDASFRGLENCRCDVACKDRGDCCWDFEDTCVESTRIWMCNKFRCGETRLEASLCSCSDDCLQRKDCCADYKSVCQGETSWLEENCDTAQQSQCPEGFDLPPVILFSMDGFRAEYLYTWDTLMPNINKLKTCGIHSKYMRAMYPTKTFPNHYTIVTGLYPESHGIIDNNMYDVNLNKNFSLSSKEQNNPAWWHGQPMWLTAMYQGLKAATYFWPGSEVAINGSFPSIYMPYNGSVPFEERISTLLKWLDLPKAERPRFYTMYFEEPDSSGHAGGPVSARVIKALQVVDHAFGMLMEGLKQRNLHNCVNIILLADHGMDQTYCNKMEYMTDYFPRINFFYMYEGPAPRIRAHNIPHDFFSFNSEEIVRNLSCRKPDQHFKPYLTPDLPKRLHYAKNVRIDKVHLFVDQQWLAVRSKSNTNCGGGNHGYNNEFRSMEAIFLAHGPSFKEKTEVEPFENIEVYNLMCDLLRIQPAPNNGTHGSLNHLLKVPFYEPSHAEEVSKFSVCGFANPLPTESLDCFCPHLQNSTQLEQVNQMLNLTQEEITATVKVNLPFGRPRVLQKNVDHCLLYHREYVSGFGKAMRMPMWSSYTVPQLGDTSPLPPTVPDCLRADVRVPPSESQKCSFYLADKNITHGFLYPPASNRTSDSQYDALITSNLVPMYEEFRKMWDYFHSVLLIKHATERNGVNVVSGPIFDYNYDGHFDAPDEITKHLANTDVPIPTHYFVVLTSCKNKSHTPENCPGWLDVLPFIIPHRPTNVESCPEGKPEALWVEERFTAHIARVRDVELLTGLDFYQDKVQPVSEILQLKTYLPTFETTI
# [3] = system: A549; assay: Antiproliferative activity against human A549 cells assessed as cell viability at 10 uM after 72 hrs by MTT assay relative to control; format: functional; conditions: A549, 72 h, read-out: Activity
# [4] = system: MCF7; assay: Antiproliferative activity against human MCF7 cells assessed as cell viability at 10 uM after 72 hrs by MTT assay relative to control; format: functional; conditions: MCF7, 72 h, read-out: Activity
# [5] = system: HT-29; assay: Antiproliferative activity against human HT-29 cells assessed as cell viability at 10 uM after 72 hrs by MTT assay relative to control; format: functional; conditions: HT-29, 72 h, read-out: Activity
# [6] = biological target: T3, Ectonucleotide pyrophosphatase/phosphodiesterase family member 1 (Homo sapiens) (UniProt P22413); assay: Inhibition of human NPP1 expressed in COS-7 cell membranes assessed as reduction in p-nitrophenol production at 100 uM using pNP-TMP as substrate preincubated with enzyme for 15 mins followed by substrate addition and measured after 35 mins relative to control
# T3 sequence (whole entry): T1 sequence (P22413 whole entry)
# [7] = system: A549; assay: Antiproliferative activity against human A549 cells assessed as reduction in cell viability after 48 hrs by MTT assay; format: functional, cell-based; conditions: A549, 48 h
# [8] = system: MCF7; assay: Antiproliferative activity against human MCF7 cells assessed as reduction in cell viability after 48 hrs by MTT assay; format: functional, cell-based; conditions: MCF7, 48 h
# [9] = system: HT-29; assay: Antiproliferative activity against human HT-29 cells assessed as reduction in cell viability after 48 hrs by MTT assay; format: functional, cell-based; conditions: HT-29, 48 h
# [10] = Cytotoxicity against human F180 cells assessed as reduction in cell viability after 48 hrs by MTT assay; format: cell-based; conditions: F180, 48 h
# [11] = biological target: T4, Ectonucleotide pyrophosphatase/phosphodiesterase family member 3 (Homo sapiens) (UniProt O14638); assay: Inhibition of human NPP3 expressed in COS-7 cell membranes assessed as reduction in p-nitrophenol production at 100 uM using pNP-TMP as substrate preincubated with enzyme for 15 mins followed by substrate addition and measured after 35 mins relative to control
# T4 sequence (whole entry): T2 sequence (O14638 whole entry)
# [12] = Selectivity index, ratio of IC50 for human F180 cells to IC50 for human HT-29 cells
Compound,IC50 [1],IC50 [2],inhibition [6],IC50 [7],IC50 [8],IC50 [9],inhibition [11],viability at 10 µM [3],viability at 10 µM [4],viability at 10 µM [5],IC50 [10],Ratio IC50 [12]
CNS(=O)(=O)Oc1ccc(-c2sc3cc(OS(=O)(=O)NC)ccc3c2C(=O)c2ccc(OCCN3CCCCC3)cc2)cc1,–,1550 nM,36%,13 µM,6 µM,1700 nM,–,58.9%,37.2%,11.5%,> 15 µM,–
O=C(c1ccc(OCCN2CCCCC2)cc1)c1c(-c2ccc(OS(=O)(=O)c3ccc(C(F)(F)F)cc3)cc2)sc2cc(OS(=O)(=O)c3ccc(C(F)(F)F)cc3)ccc12,4010 nM,230 nM,–,> 15 µM,> 15 µM,4000 nM,–,67.7%,41%,17.4%,> 15 µM,–
CCS(=O)(=O)Oc1ccc(-c2sc3cc(OS(=O)(=O)CC)ccc3c2C(=O)c2ccc(OCCN3CCCCC3)cc2)cc1,–,1510 nM,35.1%,–,–,–,–,90.2%,118%,62.2%,–,–
CC(C)(C)c1ccc(S(=O)(=O)Oc2ccc(-c3sc4cc(OS(=O)(=O)c5ccc(C(C)(C)C)cc5)ccc4c3C(=O)c3ccc(OCCN4CCCCC4)cc3)cc2)cc1,290 nM,710 nM,–,6.7 µM,3.2 µM,1400 nM,–,7.3%,12.1%,9.9%,11.8 µM,8.43
O=C(c1ccc(OCCN2CCCCC2)cc1)c1c(-c2ccc(OS(=O)(=O)C3CCCCC3)cc2)sc2cc(OS(=O)(=O)C3CCCCC3)ccc12,–,490 nM,30%,–,–,–,–,104%,136%,109%,–,–
COc1ccc(S(=O)(=O)Oc2ccc(-c3sc4cc(OS(=O)(=O)c5ccc(OC)cc5)ccc4c3C(=O)c3ccc(OCCN4CCCCC4)cc3)cc2)cc1,420 nM,1240 nM,–,–,–,–,–,99.4%,127%,89.3%,–,–
CN(C)S(=O)(=O)Oc1ccc(-c2sc3cc(OS(=O)(=O)N(C)C)ccc3c2C(=O)c2ccc(OCCN3CCCCC3)cc2)cc1,4240 nM,–,–,> 15 µM,3.4 µM,1500 nM,43.7%,91.8%,58%,25%,14 µM,–
O=C(c1ccc(OCCN2CCCCC2)cc1)c1c(-c2ccc(O)cc2)sc2cc(O)ccc12 [RALOXIFENE HYDROCHLORIDE],–,–,–,> 15 µM,> 15 µM,> 15000 nM,–,87%,77.7%,107%,> 15 µM,–

# The next lines start with results.
IC50 [1],IC50 [2],inhibition [6],IC50 [7],IC50 [8],IC50 [9],inhibition [11],Compound,viability at 10 µM [3],viability at 10 µM [4],viability at 10 µM [5],IC50 [10],Ratio IC50 [12]
8880 nM,1810 nM,–,–,–,–,–,O=C(c1ccc(OCCN2CCCCC2)cc1)c1c(-c2ccc(OS(=O)(=O)c3ccc(F)cc3)cc2)sc2cc(OS(=O)(=O)c3ccc(F)cc3)ccc12,105%,115%,108%,–,–
450 nM,–,–,–,–,–,38.5%,Cc1ccc(S(=O)(=O)Oc2ccc(-c3sc4cc(OS(=O)(=O)c5ccc(C)cc5)ccc4c3C(=O)c3ccc(OCCN4CCCCC4)cc3)cc2)cc1,95.2%,116%,72.4%,–,–
–,–,28.7%,–,–,–,42.5%,O=C(c1ccc(OCCN2CCCCC2)cc1)c1c(-c2ccc(OS(=O)(=O)c3cccc4cccnc34)cc2)sc2cc(OS(=O)(=O)c3cccc4cccnc34)ccc12,99.2%,129%,110%,–,–
